In paper PMC5664514 (Proceedings of the National Academy of Sciences of the …, 2017):

Tests used:
HEK/APPsw cells [1] = test: Western blot of APP metabolites, ADAM10, BACE1, BDNF in HEK/APPsw cells; format: cell-based, human; conditions: 10 μM, vs DMSO
Tg2576 AD mice [2] = conditions: 200 mg/kg; cited from earlier work
ADAM10 = conditions: via HDAC2/3 mechanism involving USF-1; cited from earlier work
APP-PS1-21 AD mice = conditions: 2 mg/d orally, 10-mo-old mice; cited from earlier work
Tg2576 AD mice [3] = conditions: 25 mg/kg and 50 mg/kg; cited from earlier work
aged APP/PS1 mice = conditions: 50 mg/kg i.p.; cited from earlier work
HEK/APPsw cells [4] = test: CellTiter-Glo luminescent cell viability assay; format: cell-based; conditions: 10 μM, 48 h
BDNF [5] = conditions: cited from earlier work
BDNF [6] = conditions: 0.8–5 mM; cited from earlier work

With `C=C(C)[C@@H](CC=C(C)C)C[C@@]12C[C@@H](CC=C(C)C)C(C)(C)[C@@](CC=C(C)C)(C(=O)C(C(=O)c3ccc(O)c(O)c3)=C1O)C2=O` [garcinol] the “BACE1 protein level, change (Western blot)” value (HEK/APPsw cells [1]) was 54.3%, the “mature APP, change (Western blot)” value (HEK/APPsw cells [1]) was 37.9% and the “sAPPα, change (Western blot)” value (HEK/APPsw cells [1]) was −33.6%.

For `O=C([O-])CCCc1ccccc1.[Na+]` [sodium 4-phenylbutyrate], the memory (Tg2576 AD mice [2]) is listed as “positive effects on memory”.

For `CCC(=O)CCCCC[C@@H]1NC(=O)[C@H]2CCCCN2C(=O)[C@H]([C@@H](C)CC)NC(=O)[C@H](Cc2cn(OC)c3ccccc23)NC1=O` [apicidin], the ADAM10 expression (ADAM10) is listed as “up-regulating the expression of ADAM10”.

In the case of `O=C(CCCCCCC(=O)Nc1ccccc1)NO` [SAHA, suberoylanilide hydroxamic acid], the Aβ plaques (APP-PS1-21 AD mice) is listed as “no significant differences”, the H4K12 acetylation (APP-PS1-21 AD mice) is listed as “increased H4K12 acetylation” and the spatial memory (APP-PS1-21 AD mice) is listed as “partial improvement of spatial memory”. For the same compound, the fear conditioning behavior (Tg2576 AD mice [3]) was “not behaviorally”, the “synaptic plasticity (long-term potentiation)” value (Tg2576 AD mice [3]) was “positive effects on synaptic plasticity” and the cognitive behavior (aged APP/PS1 mice) was “improvement of cognitive behavior”. For the same compound, the cell viability (HEK/APPsw cells [4]) was “significantly reduce cell viability” and the BDNF gene expression (BDNF [5]) was “increase BDNF gene expression”.

In the case of `CC(O)CC(=O)O` (stereo not drawn) [β-hydroxybutyrate], the BDNF expression (BDNF [6]) is given as “increase BDNF expression”.

With `O=C(/C=C/C#Cc1cccc(NS(=O)(=O)c2ccccc2)c1)NO` [oxamflatin] the cell viability (HEK/APPsw cells [4]) was “significantly reduce cell viability”.
